Patent publication US20230140290A1, “SALICYLAMIDE DERIVATIVES AND RELATED METHODS OF MAKING” (THE BOARD OF REGENTS OF THE UNIVERSITY OF TEXAS SY, priority 2020, published 2023)
Read-outs that look alike come from different tables or passages of the source.

Columns and labels:
A549 cells = assay: Cytotoxicity assay (AlamarBlue); settings: read-out: CC50 (μM), cytotoxic concentration 50%; A549 cell line, 48 h
Description: (§1) Cytotoxicity Assay. The cytotoxicity of the compounds was analyzed by commercial kit AlamarBlue® (Invitrogen, Ref. DAL1025). A549 cells at a density of 5×10^3 cells per well in 96-well plates were seeded. […] Cells were then incubated at 37° C. for 48 h following the kit protocol. The cytotoxic concentration 50 (CC50) value was obtained using the statistical package GraphPad Prism. This assay was performed in duplicate.

HAdV5-GFP = assay: Time of addition assay; type: cell-based, HAdV-5; settings: for inhibition at 0.78 µM: FIG. 10
Description: (§2) Time of Addition Curve Study. […] Parallel samples of HAdV-5 were incubated with or without the selected derivatives on ice for 1 h. […] The derivatives were added at the indicated time points before or during this incubation. After a total of 2 h at 37° C., cells were incubated for an additional 48 h at 37° C. and 5% CO2 before being analyzed for GFP expression using the Typhoon 9410 imager (GE Healthcare Life Sciences) as above.
as §2, with “Assay.” for “Curve Study.”
as §2, with “Assay.” for “Curve Study.”, “compounds” for “derivatives”, “Compounds 153 and 161” for “The derivatives”

[1] = Cytotoxicity assay (AlamarBlue); settings: human, A549 cells
Description: as §1

[2] = Maximum tolerated dose (MTD); settings: female, Syrian, hamster, in vivo, ip
Description: Maximum tolerated dose (MTD). […] Before dosing, compounds were diluted in 10% DMSO, 10% Cremophor EL and 80% sodium chloride physiological solution. […] At day 14 animals were sacrificed with a lethal dose of thiopental. All inoculations were done via intraperitoneal.

HAdV = assay: Combination study (Chou-Talalay, CalcuSyn) in plaque assay; type: cell-based
From the text: Synergistic Activity of Selected Derivatives. […] To assess this hypothesis, we conducted a combination study based on the Chou-Talalay method for drug combination using the CalcuSyn software (Chou, and Talalay, Adv. Enzyme Regul. 1984, 22, 27-55; Matthews et al., PLoS One. 2017, 12, e0173303) using those compounds with lower IC50 in the plaque assay and higher SI, compound 87 from this work and compounds 17 (JMX0312), 58 (JMX0281) from our first library of derivatives. The constant ratio for each combination was selected based on the IC50 values for each drug.
Synergistic Activity of Selected Compounds. […] To evaluate, a combination study was conducted based on the Chou-Talalay method for drug combination using the CalcuSyn software. The constant ration for each combination was selected based on the IC50 values for each drug.

HCMV = HCMV DNA quantification by real-time PCR; type: cell-based, human cytomegalovirus; settings: HFF cells, 72 h, 10-fold plaque IC50 (niclosamide 5 μM)
Description: HCMV DNA Quantification by Real-Time PCR. […] Then, cells were incubated for 72 h at 37° C. and 5% CO2 and HCMV DNA was purified from the cell lysate using the QIAamp DNA Mini Kit (Qiagen, Valencia, Calif.) following the manufacturer's instructions. Real-time PCR primers, mixtures and protocols were the same as previously reported (Sanchez-Cespedes et al., J. Med. Chem. 2016, 59, 5432-5448).

HAdV5 = assay: HAdV-mediated endosome disruption (α-sarcin co-delivery assay); type: cell-based, HAdV-5; settings: FIG. 11; virus below 12 ng; similar to ts1 mutant
HAdV-5 = assay: Thermostability assay (HAdV capsid uncoating); type: cell-based; settings: FIG. 12; 50 μM, 24 h post-infection
From the text: The studies described above delineate the step of infection that is targeted by 161; however, the precise molecular mechanism involved in its antiviral activity remained to be established. One alternative mode of action was that 161 could block HAdV-mediated lysis of the endosome by stabilizing the virus capsid, thereby preventing uncoating. Indeed, human defensins and neutralizing antibodies have been previously shown to act through this mechanism (Smith et al., Cell Host Microbe, 2008, 3, 11-19). To determine whether 161 impacts HAdV uncoating, we used a thermostability assay that mimics virus disassembly in the endosome, which was previously described by Wiethoff et al., (Wiethoff et al., J. Virol. 2005, 79, 1992-2000), with a few modifications. In this assay, temperatures above 48° C. promote selective removal of the virus vertex region. HAdV-5 was incubated with or without 50 μM concentrations of 161 at temperatures from 37° C. to 52° C. and then added to cells to evaluate the viability of the viruses. […] Upon heating HAdV-5 to 48° C. or above, in those non-treated with compound 161, there was no GFP expression 24 h post-infection.

[3] = 0 h, FIG. 2, read-out: inhibition of HAdV infection after addition at the moment of the infection (0 min)
[4] = combination 17 & 58 (1:2.5), read-out: IC50 combination
[5] = combination 17 & 87 (1:1.5), read-out: IC50 combination
[6] = derivative alone, read-out: IC50 Single
[7] = combination 87 & 58 (1:1.7), read-out: IC50 combination

O=C(Nc1ccc([N+](=O)[O-])cc1F)c1cc(Cl)ccc1O [Compound 11, 5-Chloro-N-(2-fluoro-4-nitrophenyl)-2-hydroxybenzamide]
CC50 (A549 cells): 10.9 µM
loss of inhibition when added between 20 and 40 p.i. (HAdV5-GFP; FIG. 2, 5 μM): 34%

O=C(Nc1cc(F)cc(C(F)(F)F)c1)c1cc(Cl)ccc1O [Compound 17, 5-Chloro-N-(3-fluoro-5-(trifluoromethyl)phenyl)-2-hydroxybenzamide]
CC50 at 48 h [1]: 120 ± 33.6 µM
inhibition at 10 µM (HAdV5-GFP; [3]): < 50%
MTD at 14 days [2]: 12.5 mg/kg
IC50 (HAdV; [4]): 100 ± 10 nM
IC50 (HAdV; [5]): 90 nM
IC50 (HAdV; [6]): 180 ± 10 nM

CC(C)[C@H](NC(=O)c1cc(Cl)ccc1O)C(=O)Nc1ccc([N+](=O)[O-])cc1Cl [Compound 58, (S)-5-Chloro-N-(1-((2-chloro-4-nitrophenyl)amino)-3-methyl-1-oxobutan-2-yl)-2-hydroxybenzamide]
CC50 at 48 h [1]: 200 µM
inhibition at 10 µM (HAdV5-GFP; [3]): < 50%
MTD at 14 days [2]: 50 mg/kg
IC50 (HAdV; [4]): 250 ± 20 nM
IC50 (HAdV; [7]): 500 ± 40 nM
IC50 (HAdV; [6]): 450 ± 60 nM

O=C(N[C@H](Cc1ccccc1)C(=O)Nc1ccc([N+](=O)[O-])cc1Cl)c1cc(Cl)ccc1O [Compound 60, (R)-5-Chloro-N-(1-((2-chloro-4-nitrophenyl)amino)-1-oxo-3-phenylpropan-2-yl)-2-hydroxybenzamide]
CC50 (A549 cells): 77.9 µM
inhibition at 10 µM (HAdV5-GFP; 20 min, read-out: inhibition of HAdV infection when added after 20 min p.i., FIG. 2): < 50%

CC1(Nc2ccc(NC(=O)c3cc(Cl)ccc3O)c(Cl)c2)CCCC1 [Compound 87, 5-Chloro-N-(2-chloro-4-((1-methylcyclopentyl)amino)phenyl)-2-hydroxybenzamide]
CC50 (A549 cells): 157 µM
decrease of total HCMV DNA compared to the DMSO control (HCMV): no significant inhibition
MTD at 14 days [2]: 150 mg/kg
IC50 (HAdV; [5]): 140 nM
IC50 (HAdV; [7]): 300 ± 20 nM
IC50 (HAdV; [6]): 270 ± 160 nM

O=C(NCC1CCCCC1)c1cc(Cl)ccc1O [Compound 161, 5-Chloro-N-(cyclohexylmethyl)-2-hydroxybenzamide]
inhibition at 0.78 µM (HAdV5-GFP; 0 h, read-out: inhibitory activity at 0 min post-infection): 95.3%
inhibition at 0.78 µM (HAdV5-GFP; 20 min, read-out: inhibitory activity at 20 min p.i.): 30.7%
HAdV-mediated endosome lysis (HAdV5): prevented HAdV-mediated endosome lysis
GFP expression of viruses heated to 48° C. (HAdV-5): significant levels of GFP expression
GFP expression of viruses heated to 52° C. (HAdV-5): some residual expression
